ChEMBL document CHEMBL1201862, “PubChem BioAssay data set” (2004)
Activity calls are given as the source filed them.

Columns and labels:
[1] = NIH-3T3 fibroblast cytotoxicity, dose response, cytotoxicity control, cell-based, fluorescence, Alamar Blue, secondary assay (AID 2327); format: functional;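 note: NIH-3T3 mouse fibroblasts cultured with fluconazole at 8 µg/mL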
[2] = molecular target: G-protein coupled receptor 35 (Homo sapiens, UniProt Q9HC97); test: GPR35 antagonists blocking zaprinast-driven arrestin recruitment, primary screen, imaging, U2OS, beta-arrestin-GFP, zaprinast agonist (AID 2058); format: functional;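 note: antagonist potency meaning inhibition of agonist-induced arrestin redistribution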
[3] = inhibitors of firefly luciferase expression or activity, dose response, H4 neuroglioma cells, luminescence (AID 1990); format: functional, cell-based
[4] = system: Streptococcus sp. 'group A'; test: growth inhibition of control SK(-) GAS strain, dose response, counter-screen for streptokinase expression inhibitor project, luminescence, kanamycin, BacTiterGlo, confirmation (AID 1900); format: functional, organism-based
BJ [5] = test: cytotoxicity toward BJ-TERT fibroblasts, dose response, cell-based, RAS-independent, luminescence (AID 1933); format: functional; details: Homo sapiens
[6] = Luminescence Cell-Based Dose Response HTS to Identify Inhibitors of 5'UTR Stem-Loop Driven Prion Protein mRNA Translation in H4 Neuroglioblastoma Cells. [Related pubchem assays: 1827 (Project Summary), 1813 (Primary HTS)]; format: functional
BJ [7] = test: cells; format: functional, cell-based; details: Homo sapiens
[8] = C. albicans growth with fluconazole, confirmation, fluorescence, retest (AID 2467); format: functional, cell-based
[9] = molecular target: T1, Serine/threonine-protein phosphatase (Candida dubliniensis (strain CD36 / CBS 7987 / NCPF 3949 / NRRLY-17841) (Yeast), UniProt B9W6M3); test: calcineurin pathway inhibitors in yeast reporter, dose response, S. cerevisiae, CDRE-lacZ, luminescence, secondary (AID 2388); format: functional, cell-based;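 note: yeast reporter cells carrying a calcineurin-responsive lacZ construct stimulated with calcium chloride; luminescent beta-galactosidase reporter signal in whole cells rather than isolated phosphatase activity; potency for inhibition where a drop in reporter signal means calcineurin blockade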
T1 sequence (B9W6M3 whole entry): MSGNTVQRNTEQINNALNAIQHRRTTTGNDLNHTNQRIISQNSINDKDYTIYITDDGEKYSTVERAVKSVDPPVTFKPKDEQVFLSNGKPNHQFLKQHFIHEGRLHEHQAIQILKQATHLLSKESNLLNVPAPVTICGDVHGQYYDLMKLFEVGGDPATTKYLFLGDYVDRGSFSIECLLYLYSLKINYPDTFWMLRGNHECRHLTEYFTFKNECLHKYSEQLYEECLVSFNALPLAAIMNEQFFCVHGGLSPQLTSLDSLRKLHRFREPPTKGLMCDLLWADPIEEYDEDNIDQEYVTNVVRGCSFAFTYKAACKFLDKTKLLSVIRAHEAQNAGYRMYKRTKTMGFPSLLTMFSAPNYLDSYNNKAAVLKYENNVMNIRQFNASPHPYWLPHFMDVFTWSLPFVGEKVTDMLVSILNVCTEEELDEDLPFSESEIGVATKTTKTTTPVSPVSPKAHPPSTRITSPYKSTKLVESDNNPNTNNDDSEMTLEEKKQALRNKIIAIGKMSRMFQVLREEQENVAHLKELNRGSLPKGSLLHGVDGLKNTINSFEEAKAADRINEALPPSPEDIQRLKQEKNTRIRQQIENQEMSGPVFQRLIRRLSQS

BJ [10] = test: cytotoxicity toward BJ-TERT-LT-ST fibroblasts, dose response, cell-based, RAS-independent, luminescence (AID 1935); format: functional; details: Homo sapiens;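 note: BJ fibroblasts immortalized with TERT plus LT and ST oncogenes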
[11] = cytotoxicity toward DRD oncogenic fibroblasts, dose response, cell-based, non-viral oncogenic, luminescence (AID 1934); format: functional; details: Homo sapiens
Streptococcus = test: Group A Streptococcus viability loss, dose response, counter-screen for streptokinase expression inhibitor project, luminescence, BacTiterGlo (AID 1915); format: functional, organism-based;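 note: potency for reduction of bacterial viability or growth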
[12] = molecular target: Cyclin-dependent kinase 5/CDK5 activator 1 (Homo sapiens, UniProt Q00535); test: CDK5/p35 kinase inhibitors, dose response, biochemical, cherry-picked samples, set 2 (AID 504545)
[13] = cytotoxicity in HEK-293T cells, dose response, cytotoxicity control for TCR NF-kB inhibitor project, luminescence, T-cell screen hits (AID 489026); format: functional, cell-based;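 note: cells exposed to compound about 14 hours before the viability readout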
Nonstructural protein 1 = Nonstructural protein 1 (Influenza A virus, UniProt Q194T2); format: functional, Influenza A virus (A/California/07/2009(H1N1))
Cysteine protease ATG4B = molecular target: T2, Cysteine protease ATG4B (Homo sapiens, UniProt Q9Y4P1); format: functional;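 note: Fluorescence-based dose-response confirmation assay measuring inhibition of ATG4B activity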
T2 sequence (Q9Y4P1 whole entry): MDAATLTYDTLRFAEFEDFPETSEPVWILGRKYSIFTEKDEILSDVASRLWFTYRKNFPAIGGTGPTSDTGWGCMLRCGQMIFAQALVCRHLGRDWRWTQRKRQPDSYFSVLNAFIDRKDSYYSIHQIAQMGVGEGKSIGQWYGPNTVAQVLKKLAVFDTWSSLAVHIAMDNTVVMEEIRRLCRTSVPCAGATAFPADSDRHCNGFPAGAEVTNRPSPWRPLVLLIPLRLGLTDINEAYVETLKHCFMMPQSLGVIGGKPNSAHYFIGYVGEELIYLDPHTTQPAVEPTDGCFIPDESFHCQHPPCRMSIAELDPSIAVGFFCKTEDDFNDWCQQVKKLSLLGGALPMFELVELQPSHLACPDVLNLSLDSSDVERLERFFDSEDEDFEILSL

Phospholipase A2 = Phospholipase A2 (Homo sapiens, UniProt P04054); format: functional;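 note: confirmatory dose-response counterscreen on phospholipase A2, testing hits that came from an ultra-high-throughput screen for ATG4B inhibitors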
[14] = molecular target: T3, Apoptotic protease-activating factor 1 (Homo sapiens, UniProt O14727); format: functional
T3 sequence (O14727 whole entry): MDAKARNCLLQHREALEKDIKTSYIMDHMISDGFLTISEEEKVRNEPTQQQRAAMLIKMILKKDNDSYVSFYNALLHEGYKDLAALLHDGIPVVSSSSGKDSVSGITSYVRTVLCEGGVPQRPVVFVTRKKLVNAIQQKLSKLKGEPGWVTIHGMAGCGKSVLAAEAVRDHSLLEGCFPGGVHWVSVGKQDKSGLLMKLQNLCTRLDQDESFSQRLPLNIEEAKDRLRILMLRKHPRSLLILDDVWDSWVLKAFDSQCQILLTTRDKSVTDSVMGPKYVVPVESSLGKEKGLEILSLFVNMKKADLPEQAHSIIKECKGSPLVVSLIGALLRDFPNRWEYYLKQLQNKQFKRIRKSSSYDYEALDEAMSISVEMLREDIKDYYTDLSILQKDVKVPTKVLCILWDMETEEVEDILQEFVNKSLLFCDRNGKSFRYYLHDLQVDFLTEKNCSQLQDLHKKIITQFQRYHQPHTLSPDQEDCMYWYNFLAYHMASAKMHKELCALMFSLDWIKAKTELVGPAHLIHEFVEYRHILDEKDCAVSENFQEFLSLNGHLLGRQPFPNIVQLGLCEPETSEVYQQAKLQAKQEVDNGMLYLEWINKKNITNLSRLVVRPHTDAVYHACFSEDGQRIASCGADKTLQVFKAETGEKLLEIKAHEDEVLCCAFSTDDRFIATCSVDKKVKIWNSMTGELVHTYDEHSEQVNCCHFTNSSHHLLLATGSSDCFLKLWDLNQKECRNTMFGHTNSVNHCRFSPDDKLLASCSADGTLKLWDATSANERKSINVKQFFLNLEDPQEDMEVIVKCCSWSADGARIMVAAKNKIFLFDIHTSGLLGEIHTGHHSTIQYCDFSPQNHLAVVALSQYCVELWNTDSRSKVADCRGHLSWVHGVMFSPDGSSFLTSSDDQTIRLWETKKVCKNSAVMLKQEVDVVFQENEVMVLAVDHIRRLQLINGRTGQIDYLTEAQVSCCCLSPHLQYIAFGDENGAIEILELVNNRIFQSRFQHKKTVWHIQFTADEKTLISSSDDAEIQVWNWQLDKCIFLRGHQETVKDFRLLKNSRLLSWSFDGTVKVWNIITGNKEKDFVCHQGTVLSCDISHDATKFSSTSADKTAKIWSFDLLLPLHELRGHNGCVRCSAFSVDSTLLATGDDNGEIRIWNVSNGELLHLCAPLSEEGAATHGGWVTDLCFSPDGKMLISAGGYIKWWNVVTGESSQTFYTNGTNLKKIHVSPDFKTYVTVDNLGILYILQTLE

BJ [15] = test: cytotoxicity toward Ras-transformed BJeLR fibroblasts, dose response, cell-based, alamar blue fluorescence, cherrypicked samples (AID 2631); format: functional; details: Homo sapiens;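 note: confirmatory dose-response assay in RAS-dependent BJ fibroblasts engineered with TERT, LT and ST, with cytotoxicity read by fluorescence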
Beta-arrestin-1 = Beta-arrestin-1 (Homo sapiens, UniProt P49407); test: inhibitors of arrestin peptide binding to AP2, dose response, biochemical, cherry pick 1, beta2-adaptin appendage, flow cytometry (AID 588783); format: functional
[16] = molecular target: ATP-dependent molecular chaperone HSP82 (Candida albicans (strain WO-1) (Yeast), UniProt C4YTQ8); test: loss of DOC-induced GRE-beta-galactosidase reporter signal, dose response, Hsp90 inhibitor project, S. cerevisiae, luminescence (AID 2400); format: functional, cell-based;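 note: beta-galactosidase luminescence from glucocorticoid response element reporter as proxy for Hsp90 function; inhibitor potency where signal loss means Hsp90 inhibition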
[17] = molecular target: T4, Short transient receptor potential channel 4 (Mus musculus, UniProt Q9QUQ5); test: mouse TRPC4 channel activators, dose response, cell-based, HEK293 TRPC4/mu-opioid, Fluo-4 calcium (AID 434937); format: functional
T4 sequence (Q9QUQ5 whole entry): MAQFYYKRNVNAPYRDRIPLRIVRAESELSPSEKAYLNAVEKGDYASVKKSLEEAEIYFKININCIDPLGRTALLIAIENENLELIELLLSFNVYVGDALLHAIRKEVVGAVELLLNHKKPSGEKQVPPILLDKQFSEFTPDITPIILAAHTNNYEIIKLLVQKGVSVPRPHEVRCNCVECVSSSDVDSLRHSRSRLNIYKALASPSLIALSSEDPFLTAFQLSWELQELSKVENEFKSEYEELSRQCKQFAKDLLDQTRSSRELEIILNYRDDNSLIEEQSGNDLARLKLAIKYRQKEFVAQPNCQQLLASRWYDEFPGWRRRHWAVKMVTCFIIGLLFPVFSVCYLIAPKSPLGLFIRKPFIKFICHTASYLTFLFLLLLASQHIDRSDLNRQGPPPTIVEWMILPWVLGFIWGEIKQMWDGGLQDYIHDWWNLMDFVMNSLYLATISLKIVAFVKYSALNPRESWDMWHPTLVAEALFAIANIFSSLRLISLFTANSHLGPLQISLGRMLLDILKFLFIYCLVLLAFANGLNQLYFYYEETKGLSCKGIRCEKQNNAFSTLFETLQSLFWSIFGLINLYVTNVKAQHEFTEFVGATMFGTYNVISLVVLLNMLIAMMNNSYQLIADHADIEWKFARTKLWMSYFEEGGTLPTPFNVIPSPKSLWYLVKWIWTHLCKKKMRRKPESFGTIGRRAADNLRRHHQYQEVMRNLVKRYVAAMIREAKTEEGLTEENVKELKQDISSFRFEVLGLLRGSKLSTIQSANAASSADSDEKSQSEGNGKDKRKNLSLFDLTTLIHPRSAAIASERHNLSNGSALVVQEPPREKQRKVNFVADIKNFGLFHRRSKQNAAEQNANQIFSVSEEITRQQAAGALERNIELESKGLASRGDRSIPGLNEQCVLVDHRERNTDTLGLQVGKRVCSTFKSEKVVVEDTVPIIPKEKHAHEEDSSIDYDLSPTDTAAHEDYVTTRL

[18] = molecular target: Delta-type opioid receptor (Homo sapiens, UniProt P41143); test: Counterscreen for agonists of heterodimerization of the mu 1 (OPRM1) and delta 1 (OPRD1) opioid receptors: Luminescence-based cell-based high throughput dose response assay to identify agonists of OPRD1 homodimerization. [Related pubchem assays (depositor defined):AID504326, AID504355, AID504692, AID504904, AID504905]; format: functional
Mu-type opioid receptor = Mu-type opioid receptor (Homo sapiens, UniProt P35372); test: Counterscreen for agonists of heterodimerization of the mu 1 (OPRM1) and delta 1 (OPRD1) opioid receptors: Luminescence-based cell-based high throughput dose response assay to identify agonists of OPRM1 homodimerization.; format: functional;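 note: U2OS cells expressing OPRM1 and beta-arrestin as split beta-galactosidase partners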
[19] = molecular target: 5-hydroxytryptamine receptor 5A (Homo sapiens, UniProt P47898); test: Counterscreen for agonists of OPRM1-OPRD1 heterodimerization: luminescence-based cell-based high throughput dose response assay to identify agonists of 5-hydroxytryptamine (serotonin) 5A receptor (HTR5A). [Related pubchem assays (depositor defined):AID504326, AID504355, AID504692, AID504904, AID504905]; format: functional
CAAX prenyl protease 1 = CAAX prenyl protease 1 (Saccharomyces cerevisiae S288c, UniProt P47154); test: Ste24 protease inhibitors, dose response, biochemical, S. cerevisiae, plate reader, cherry-pick (AID 488815)
CAAX prenyl protease 2 = CAAX prenyl protease 2 (Homo sapiens, UniProt Q9Y256); test: human Rce1 protease inhibitors, dose response, biochemical, yeast membranes, quenched-peptide fluorescence, cherry-pick (AID 588849)
Chain of CAAX prenyl protease 2 (Q9Y256 whole entry): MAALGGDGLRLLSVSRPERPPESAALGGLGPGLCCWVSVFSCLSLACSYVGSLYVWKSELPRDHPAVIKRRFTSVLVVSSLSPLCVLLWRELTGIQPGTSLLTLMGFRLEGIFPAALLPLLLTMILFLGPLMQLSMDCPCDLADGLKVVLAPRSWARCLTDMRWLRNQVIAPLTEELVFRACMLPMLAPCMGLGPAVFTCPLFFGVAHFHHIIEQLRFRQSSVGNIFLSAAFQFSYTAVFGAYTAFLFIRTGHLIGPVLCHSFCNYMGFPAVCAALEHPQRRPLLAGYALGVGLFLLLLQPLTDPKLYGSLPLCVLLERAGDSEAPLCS

Chain of Cyclin-dependent kinase 5/CDK5 activator 1 (Q00535 whole entry): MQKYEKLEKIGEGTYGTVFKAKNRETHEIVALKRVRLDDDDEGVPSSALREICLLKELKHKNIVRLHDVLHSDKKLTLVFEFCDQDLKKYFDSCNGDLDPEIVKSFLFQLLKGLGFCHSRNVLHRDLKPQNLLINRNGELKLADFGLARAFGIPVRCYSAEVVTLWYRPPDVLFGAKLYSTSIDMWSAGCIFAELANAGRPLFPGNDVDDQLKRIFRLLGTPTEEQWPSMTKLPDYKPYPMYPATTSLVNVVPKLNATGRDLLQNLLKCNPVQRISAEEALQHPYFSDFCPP
Chain of Cyclin-dependent kinase 5/CDK5 activator 1 (Q15078 whole entry, further chain): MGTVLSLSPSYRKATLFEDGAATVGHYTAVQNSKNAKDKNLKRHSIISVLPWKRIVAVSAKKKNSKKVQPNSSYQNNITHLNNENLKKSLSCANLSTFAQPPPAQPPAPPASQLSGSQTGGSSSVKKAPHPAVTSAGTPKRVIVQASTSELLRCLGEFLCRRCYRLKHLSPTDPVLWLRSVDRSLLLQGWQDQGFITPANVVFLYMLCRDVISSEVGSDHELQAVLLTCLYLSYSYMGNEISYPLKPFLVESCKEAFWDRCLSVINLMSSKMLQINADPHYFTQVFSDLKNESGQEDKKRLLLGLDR
Chain of CAAX prenyl protease 1 (P47154 whole entry): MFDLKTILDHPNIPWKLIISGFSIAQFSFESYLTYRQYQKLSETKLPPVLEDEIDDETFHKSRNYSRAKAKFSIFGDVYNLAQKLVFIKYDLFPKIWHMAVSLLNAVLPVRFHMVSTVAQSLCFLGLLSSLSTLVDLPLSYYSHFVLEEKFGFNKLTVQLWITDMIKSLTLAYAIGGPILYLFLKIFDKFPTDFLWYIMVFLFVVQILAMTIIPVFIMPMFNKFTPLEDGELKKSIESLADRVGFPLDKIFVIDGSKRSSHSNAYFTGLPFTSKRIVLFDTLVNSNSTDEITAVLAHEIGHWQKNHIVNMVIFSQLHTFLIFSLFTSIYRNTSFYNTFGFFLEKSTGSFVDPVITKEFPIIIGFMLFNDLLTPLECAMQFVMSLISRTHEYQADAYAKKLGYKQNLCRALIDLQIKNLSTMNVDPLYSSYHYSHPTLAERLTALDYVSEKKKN
Chain of Phospholipase A2 (P04054 whole entry): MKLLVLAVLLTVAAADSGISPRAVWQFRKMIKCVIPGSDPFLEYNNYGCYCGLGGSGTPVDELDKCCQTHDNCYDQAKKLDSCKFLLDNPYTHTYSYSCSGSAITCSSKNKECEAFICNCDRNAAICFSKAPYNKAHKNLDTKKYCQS
Chain of Mu-type opioid receptor (P35372 whole entry): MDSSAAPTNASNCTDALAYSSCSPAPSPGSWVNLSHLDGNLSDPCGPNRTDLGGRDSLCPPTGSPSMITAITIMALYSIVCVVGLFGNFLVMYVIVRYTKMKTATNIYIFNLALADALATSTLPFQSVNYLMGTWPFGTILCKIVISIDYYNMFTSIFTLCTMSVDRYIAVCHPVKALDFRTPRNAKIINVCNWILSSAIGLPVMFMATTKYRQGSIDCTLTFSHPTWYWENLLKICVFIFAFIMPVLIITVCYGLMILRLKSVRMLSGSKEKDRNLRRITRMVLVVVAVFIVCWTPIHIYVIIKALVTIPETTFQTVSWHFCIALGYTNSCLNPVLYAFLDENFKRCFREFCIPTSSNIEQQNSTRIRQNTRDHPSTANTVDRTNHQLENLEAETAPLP
Chain of Nonstructural protein 1 (Q194T2 whole entry): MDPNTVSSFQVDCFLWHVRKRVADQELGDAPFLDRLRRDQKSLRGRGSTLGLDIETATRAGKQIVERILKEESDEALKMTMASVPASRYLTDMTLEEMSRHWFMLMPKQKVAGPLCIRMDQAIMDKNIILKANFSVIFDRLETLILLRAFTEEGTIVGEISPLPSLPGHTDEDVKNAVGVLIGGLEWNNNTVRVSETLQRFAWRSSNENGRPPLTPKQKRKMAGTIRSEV
Chain of G-protein coupled receptor 35 (Q9HC97 whole entry): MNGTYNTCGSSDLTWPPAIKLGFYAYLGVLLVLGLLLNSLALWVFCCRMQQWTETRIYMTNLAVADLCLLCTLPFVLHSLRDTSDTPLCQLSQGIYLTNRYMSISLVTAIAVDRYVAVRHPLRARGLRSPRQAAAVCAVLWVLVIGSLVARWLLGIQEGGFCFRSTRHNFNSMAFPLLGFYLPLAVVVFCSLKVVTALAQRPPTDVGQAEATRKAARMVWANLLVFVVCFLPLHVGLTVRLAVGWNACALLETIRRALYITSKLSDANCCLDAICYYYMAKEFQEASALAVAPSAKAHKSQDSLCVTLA
Chain of 5-hydroxytryptamine receptor 5A (P47898 whole entry): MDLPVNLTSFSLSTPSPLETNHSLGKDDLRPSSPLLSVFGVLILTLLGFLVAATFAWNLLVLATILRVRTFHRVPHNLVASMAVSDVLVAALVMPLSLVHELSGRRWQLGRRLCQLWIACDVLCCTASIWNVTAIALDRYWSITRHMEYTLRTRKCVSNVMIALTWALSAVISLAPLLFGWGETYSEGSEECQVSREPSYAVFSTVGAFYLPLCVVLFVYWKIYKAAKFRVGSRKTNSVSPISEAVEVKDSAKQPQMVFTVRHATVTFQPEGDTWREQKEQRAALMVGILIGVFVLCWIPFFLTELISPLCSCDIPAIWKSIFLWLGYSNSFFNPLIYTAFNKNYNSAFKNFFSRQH
Chain of Beta-arrestin-1 (P49407 whole entry): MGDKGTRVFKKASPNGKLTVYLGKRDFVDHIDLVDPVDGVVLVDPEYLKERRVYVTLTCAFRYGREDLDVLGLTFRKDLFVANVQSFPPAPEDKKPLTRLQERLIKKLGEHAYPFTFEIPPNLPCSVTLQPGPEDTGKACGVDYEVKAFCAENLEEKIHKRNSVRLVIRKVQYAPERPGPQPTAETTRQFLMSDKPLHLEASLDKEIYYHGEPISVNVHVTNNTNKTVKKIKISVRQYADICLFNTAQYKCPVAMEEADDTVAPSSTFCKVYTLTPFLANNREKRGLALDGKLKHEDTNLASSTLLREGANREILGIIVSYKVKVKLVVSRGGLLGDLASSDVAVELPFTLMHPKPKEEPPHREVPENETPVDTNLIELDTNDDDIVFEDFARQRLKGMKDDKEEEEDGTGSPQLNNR
Chain of Delta-type opioid receptor (P41143 whole entry): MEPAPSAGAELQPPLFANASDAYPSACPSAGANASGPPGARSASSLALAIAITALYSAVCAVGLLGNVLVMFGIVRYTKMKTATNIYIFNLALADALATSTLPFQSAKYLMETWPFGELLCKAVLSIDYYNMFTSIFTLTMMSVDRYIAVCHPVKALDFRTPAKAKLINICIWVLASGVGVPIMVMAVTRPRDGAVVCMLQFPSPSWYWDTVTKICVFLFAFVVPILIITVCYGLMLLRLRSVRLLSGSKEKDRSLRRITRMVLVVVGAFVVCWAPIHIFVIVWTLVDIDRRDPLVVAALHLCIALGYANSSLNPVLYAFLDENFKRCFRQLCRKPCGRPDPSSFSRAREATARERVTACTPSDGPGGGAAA
Chain of ATP-dependent molecular chaperone HSP82 (C4YTQ8 whole entry): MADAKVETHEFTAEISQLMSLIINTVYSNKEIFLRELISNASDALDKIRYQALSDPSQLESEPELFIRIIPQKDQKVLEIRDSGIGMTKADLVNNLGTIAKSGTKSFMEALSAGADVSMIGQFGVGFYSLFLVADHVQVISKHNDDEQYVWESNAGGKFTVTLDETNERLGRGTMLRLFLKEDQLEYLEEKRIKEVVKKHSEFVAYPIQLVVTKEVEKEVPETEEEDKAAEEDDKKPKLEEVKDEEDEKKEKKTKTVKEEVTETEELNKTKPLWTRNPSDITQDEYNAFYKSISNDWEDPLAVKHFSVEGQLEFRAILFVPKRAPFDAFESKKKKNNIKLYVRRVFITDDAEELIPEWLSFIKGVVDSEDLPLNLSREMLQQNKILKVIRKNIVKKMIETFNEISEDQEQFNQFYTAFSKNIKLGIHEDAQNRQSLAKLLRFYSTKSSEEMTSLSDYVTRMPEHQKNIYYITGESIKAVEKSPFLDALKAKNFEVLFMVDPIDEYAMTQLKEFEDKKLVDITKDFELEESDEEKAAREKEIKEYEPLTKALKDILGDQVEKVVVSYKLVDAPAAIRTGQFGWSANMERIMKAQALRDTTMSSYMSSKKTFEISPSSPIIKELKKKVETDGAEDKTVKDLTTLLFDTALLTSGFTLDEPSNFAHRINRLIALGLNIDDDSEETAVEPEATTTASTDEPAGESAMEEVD

Question: For `CCN1/C(=C/C(C)=C/c2sc3ccccc3[n+]2CC)Sc2ccccc21`, which EC50 [1] is on record?
Answer: 77.7 µM (active)

Question: What about the IC50 [2] of the same molecule?
Answer: 1.01 µM (active)

Question: What about the EC50 [3] of the same molecule?
Answer: < 100 nM (active)

Question: And the EC50 [4]?
Answer: 2.15 µM (active)

Question: And the EC50 (BJ [5])?
Answer: 4.56 µM (active)

Question: What about the EC50 [6] of the same molecule?
Answer: 1.68 µM (active)

Question: What about the EC50 (BJ [7]) of the same molecule?
Answer: 6.01 µM (active)

Question: And the EC50 [8]?
Answer: 51 nM (active)

Question: What about the EC50 [9] of the same molecule?
Answer: > 180 µM (inactive)

Question: And the EC50 (BJ [10])?
Answer: 5.48 µM (inconclusive)

Question: And the EC50 [11]?
Answer: 6.17 µM (active)

Question: What about the EC50 (Streptococcus) of the same molecule?
Answer: 2.74 µM (active)

Question: And the AC50 [12]?
Answer: 41.1 µM (active)

Question: And the IC50 [13]?
Answer: 64.4 µM (inactive)

Question: What about the IC50 (Nonstructural protein 1) of the same molecule?
Answer: 5.7 µM (active)

Question: What about the IC50 (Cysteine protease ATG4B) of the same molecule?
Answer: 8.62 µM (active)

Question: And the IC50 (Phospholipase A2)?
Answer: 7.86 µM (active)

Question: What about the IC50 [14] of the same molecule?
Answer: 19.4 µM (active)

Question: What about the EC50 (BJ [15]) of the same molecule?
Answer: 1.74 µM (active)

Question: And the IC50 (Beta-arrestin-1)?
Answer: 2.2 µM (active)

Question: And the EC50 [16]?
Answer: 18.3 µM (active)

Question: With `Cc1ccccc1N(CC(=O)N/N=C/c1ccc(F)cc1)C(=O)c1ccccc1` as the molecule, how does the EC50 [17] read?
Answer: 2.11 µM (active)

Question: What about the EC50 [18] of the same molecule?
Answer: > 92.5 µM (inactive)

Question: And the EC50 (Mu-type opioid receptor)?
Answer: > 92.5 µM (inactive)

Question: And the EC50 [19]?
Answer: > 92.5 µM (inactive)

Question: What does the source list for `CC1CCCC(/C=N/c2ccccc2C(=O)O)=C1O` (configuration not stated)?
Answer: AC50 (CAAX prenyl protease 1): 4.3 µM (active); AC50 (CAAX prenyl protease 2): 11.6 µM (active)
